# Columns and labels:
# REC11 cells = assay: BrdU proliferation of EGF-stimulated REC11 cystic renal epithelial cells; type: cell-based, mouse; conditions: 36 hrs, after EGF 25 ng/ml for 6 hours
# From the text: REC11 cystic cell line is a conditionally immortalized epithelial collecting tubule (CT) cell line derived from the cystic kidneys of the BPK mouse model of human ARPKD crossed to the ImmortoMouse. The BPK mouse as a human ARPKD model has been described in Nauta J. et al., Pediatr Nephrol 1993, 7:163-172 and Nauta J. et al., Pediatr Res 1995, 37:755-763. The procedures for immortalization, cell isolation, cell culture and the complete phenotypic characterization of this cell line have been described in detail in Sweeney W. E. et al., Am J Physiol C Physiol 2001, 281:C1695-705. All analysis and experiments were performed on REC11 cells grown for a minimum 6 days under non-permissive conditions to eliminate residual Large T.
# Proliferation of REC11 cells was stimulated by exposure of the cells for 6 hours with EGF (25 ng/ml). Next, the cells were treated with vehicle, HET0016 (10 μM, a 20-HETE synthesis inhibitor), HET0016 (20 μM), DDMS (10 μM, a 20-HETE synthesis inhibitor), or WIT-002 (10 μM, a 20-HETE antagonist) for 36 hrs, pulsed with BrdU, and then stained for BrdU labeled cells to determine the degree of cell proliferation. […] Cells treated with a higher dose of HET0016 (20 μM) (column C) reduced proliferation by 75% (p<0.020). Cells treated with another chemically dissimilar inhibitor of the synthesis of 20-HETE, DDMS (10 μM) (column D), reduced proliferation by 47% (p<0.05). Cells treated with WIT-002 (10 μM) (column E) reduced proliferation by 25%.
# [1] = system: 20-HETE synthesis (cytochrome P450 4A and 4F isoforms); assay: 20-HETE production by renal microsomes of BPK mice dosed with HET-0016; type: in vivo, mouse
# Description: (§1) Microsomes were isolated from the cystic BPK and non-cystic Balb/C mouse kidneys as described by Ito O et al. (Am J Physiol Regul Integr Comp Physiol, 280:R822-30, 2001). For the BPK and Balb/C cells, protein lysates were harvested by homogenization and subsequent sonication of the cell pellets. For the 20-HETE production assay, the isolated protein (500 μg) was incubated in 0.5 mL of 100 mM potassium phosphate buffer containing 40 μM cold arachidonic acid and 2 mM NADPH. In some samples, the 20-HETE synthesis inhibitor, HET-0016, was added at a concentration of 1 μM. The reaction was incubated at 37° C. and equilibrated with 100% O2 for 30 minutes. The reaction was stopped by acidification to pH 3.5 with 1M formic acid. The lipids were extracted in the presence of 20-HETE-d6 (2 ng) using 3:1 ethyl acetate:water and dried down under nitrogen. The samples were reconstituted in 1:1 methanol:water and the production of 20-HETE was measured using a liquid chromatograph-triple quadrupole mass spectrometer (ABI 3000, Applied Biosystems, Inc., Foster City, Calif.) as described in Williams J M et al. Hypertension, 49:687-94, 2007.
# To further examine the biological role of 20-HETE in the epithelial cell proliferation, post-natal day 7, 10 or 21 day old BPK mice were treated with an intraperitoneal injection of vehicle or HET-0016 (10 mg/kg/day) 2 hours prior to sacrifice at which point the kidneys were removed for measurement of 20-HETE synthesis.
# Cyp4a12 = molecular target: T1, Cyp4a12 (Mus musculus, UniProt Q91WL5); assay: 20-HETE production assay with lysates of Cyp4a12 over-expressing Balb/C cells; type: biochemical, murine; conditions: 1 μM during the 20-HETE production assay
# T1 construct: Murine full-length Cyp4a10 (cDNA clone MGC:58977) and Cyp4a12 (cDNA clone MGC:25972) cDNA clones were purchased from ATCC; expressed in transfected cells; host or cells: conditionally immortalized non-cystic Balb/C (+/+) mouse renal epithelial cells transduced with the lentiviral vector pHR(+)c.Ub.CYP4A12.R(-)W(+); protein lysates
# T1 sequence (Q91WL5 38-508): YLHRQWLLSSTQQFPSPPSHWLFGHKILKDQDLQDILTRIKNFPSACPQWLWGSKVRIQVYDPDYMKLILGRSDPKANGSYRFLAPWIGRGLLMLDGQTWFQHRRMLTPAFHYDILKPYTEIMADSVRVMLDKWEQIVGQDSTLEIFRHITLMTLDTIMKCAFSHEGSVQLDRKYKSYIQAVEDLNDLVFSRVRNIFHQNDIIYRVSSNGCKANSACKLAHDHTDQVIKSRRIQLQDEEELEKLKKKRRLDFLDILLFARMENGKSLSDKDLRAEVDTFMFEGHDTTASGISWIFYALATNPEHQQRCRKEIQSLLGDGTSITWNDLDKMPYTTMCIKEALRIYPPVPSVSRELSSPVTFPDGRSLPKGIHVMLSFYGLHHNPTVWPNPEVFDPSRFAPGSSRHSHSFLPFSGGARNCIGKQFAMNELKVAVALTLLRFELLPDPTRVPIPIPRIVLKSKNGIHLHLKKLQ
# Description: as §1
# The functional activity of the cytochrome P450 4A isoforms was determined using liquid chromatography coupled to mass spectrometry in the 20-HETE production assay (FIG. 7B). […]
# cystic PCK CT cells = assay: BrdU proliferation of primary cystic PCK collecting tubule cells; type: cell-based, rat; conditions: 10 μM, 36 hours; vehicle 28.5%±1%
# Description: Renal CT cells from the PCK rat were isolated as described in Sweeney W. E. et al., Am J Physiol C Physiol, 2001, 281:C1695-705, using monoclonal F-13 a principal cells specific surface marker (Fejes-Toth N et al., J Tiss Cult Meth 1991, 13:179-184).
# To determine the level of proliferation in the cystic PCK CT cells, the cells were incubated with HET-0016 (10 μM) or vehicle for 36 hours. Three hours prior to the harvesting of the cells, 5-bromo-2′-deoxyuridine (BrdU) at a concentration of 30 μM was added to determine the level of cell cycle inhibition. The cells were subsequently methanol fixed and BrdU-positive cells were identified by immunohistology with biotinylated monoclonal anti-BrdU antibody (Zymed, South San Francisco, Calif.). Data were expressed as the percentage of BrdU-labeled cells per 500 counted cells. In the vehicle treated group, 28.5%±1% (n=3) were labeled with BrdU. In the HET-0016 treated group, 10.8%±1% (n=3) were labeled with BrdU.
substance,measurement,setting,value
N-hydroxy-N-(4-butyl-2-methylphenyl)-formamidine [HET0016],reduction of proliferation (BrdU labeled cells) vs vehicle,REC11 cells; 10 μM,66%
same,reduction of proliferation (BrdU labeled cells) vs vehicle,REC11 cells; 20 μM,75%
same,effect on other metabolites of arachidonic acid formed by the kidney,[1]; 10 mg/kg/day i.p.,no apparent inhibition
same,inhibition of the formation of 20-HETE,"[1]; 10 mg/kg/day i.p. 2 hours prior to sacrifice, renal microsomes",> 95%
same,production of 20-HETE,"[1]; 10 mg/kg/day i.p. 2 hours prior to sacrifice, renal microsomes, vehicle 1.06±0.33",0.04±0.02 pmoles/min/mg protein
same,inhibition of 20-HETE synthesis by over-expressed Cyp4a12,Cyp4a12,> 70%
same,cells labeled with BrdU (per 500 counted cells),cystic PCK CT cells,10.8%±1%
